The target of test [1] is T1, ATP-binding cassette sub-family C member 2 (Rattus norvegicus, UniProt Q63120). Description: TP_TRANSPORTER: inhibition of DNP-SG uptake in bile canalicular membrane vesicles from SD rat. The test is classed as functional, cell membranes, Sprague-Dawley, Bile canalicular membrane vesicle.
Test [2] concerns the target T1, ATP-binding cassette sub-family C member 2. The test can be described thus: TP_TRANSPORTER: inhibition of SN-38 uptake in bile canalicular membrane vesicles from SD rat. The class given is functional, cell membranes, Sprague-Dawley, Bile canalicular membrane vesicle.
Test [3] has the same target. Description: TP_TRANSPORTER: inhibition of DNP-SG uptake in blie canalicular membrane vesicle from SD rat. The class given is functional, cell membranes, Sprague-Dawley, Bile canalicular membrane vesicle.
Test [4] concerns the target ATP-binding cassette sub-family C member 2 (Rattus norvegicus) (UniProt Q63120). The test can be described thus: TP_TRANSPORTER: inhibition of SN-38 uptake in bile canalicular membrane vesicles.

Consider ten compounds from ChEMBL document CHEMBL2074105, “The potential for an interaction between MRP2 (ABCC2) and various therapeutic agents: probenecid as a candidate inhibitor of the biliary excretion of irinotecan metabolites” (Drug Metabol Pharmacokin, 2002).

T1 sequence (Q63120 whole entry): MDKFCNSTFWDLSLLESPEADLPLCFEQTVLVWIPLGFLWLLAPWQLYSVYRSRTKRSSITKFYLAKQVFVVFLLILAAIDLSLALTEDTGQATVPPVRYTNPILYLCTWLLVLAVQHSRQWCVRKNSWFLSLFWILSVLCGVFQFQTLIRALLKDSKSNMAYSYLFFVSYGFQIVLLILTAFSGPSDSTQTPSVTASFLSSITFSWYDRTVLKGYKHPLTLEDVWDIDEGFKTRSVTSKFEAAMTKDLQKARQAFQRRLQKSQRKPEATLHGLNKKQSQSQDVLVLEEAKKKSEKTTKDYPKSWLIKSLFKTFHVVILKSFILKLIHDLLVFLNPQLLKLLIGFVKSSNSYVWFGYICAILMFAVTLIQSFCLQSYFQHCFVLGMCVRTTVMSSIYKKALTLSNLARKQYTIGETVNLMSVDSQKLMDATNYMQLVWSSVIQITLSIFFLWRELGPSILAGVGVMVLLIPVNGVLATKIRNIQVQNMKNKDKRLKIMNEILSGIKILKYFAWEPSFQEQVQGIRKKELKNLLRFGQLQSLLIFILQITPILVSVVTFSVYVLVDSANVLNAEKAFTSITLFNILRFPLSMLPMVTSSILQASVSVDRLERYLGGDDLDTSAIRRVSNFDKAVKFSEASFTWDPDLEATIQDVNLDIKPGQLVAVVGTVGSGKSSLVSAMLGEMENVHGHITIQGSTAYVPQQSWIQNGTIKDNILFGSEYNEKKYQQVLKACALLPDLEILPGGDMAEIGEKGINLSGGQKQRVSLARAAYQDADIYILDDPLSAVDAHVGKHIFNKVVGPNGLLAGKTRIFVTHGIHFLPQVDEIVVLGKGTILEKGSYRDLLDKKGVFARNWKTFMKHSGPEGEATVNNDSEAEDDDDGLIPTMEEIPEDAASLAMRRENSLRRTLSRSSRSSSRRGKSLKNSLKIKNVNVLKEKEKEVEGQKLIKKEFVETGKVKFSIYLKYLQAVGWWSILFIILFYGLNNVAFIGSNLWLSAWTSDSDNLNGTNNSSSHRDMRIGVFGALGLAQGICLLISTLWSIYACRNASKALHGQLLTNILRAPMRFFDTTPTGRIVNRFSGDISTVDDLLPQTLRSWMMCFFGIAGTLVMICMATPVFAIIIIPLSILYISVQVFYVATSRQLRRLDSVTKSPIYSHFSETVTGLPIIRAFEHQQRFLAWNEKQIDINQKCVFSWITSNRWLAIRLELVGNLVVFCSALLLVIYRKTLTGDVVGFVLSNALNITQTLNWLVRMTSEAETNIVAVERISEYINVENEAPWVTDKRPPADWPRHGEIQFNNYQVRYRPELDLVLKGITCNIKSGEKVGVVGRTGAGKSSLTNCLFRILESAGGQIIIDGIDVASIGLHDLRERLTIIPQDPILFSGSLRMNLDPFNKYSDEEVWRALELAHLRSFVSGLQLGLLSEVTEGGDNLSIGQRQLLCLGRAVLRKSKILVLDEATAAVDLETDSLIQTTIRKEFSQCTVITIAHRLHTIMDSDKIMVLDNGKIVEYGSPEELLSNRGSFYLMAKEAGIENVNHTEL
Sequence of ATP-binding cassette sub-family C member 2 (Rattus norvegicus) (Q63120 whole entry, looked up): as the sequence (Q63120 whole entry) above

One may read the Ki as a dissociation constant, usually derived from enzyme kinetics or from competition with a known ligand. `N[C@@H](CCC(=O)N[C@@H](CSc1c(Br)c(Br)c2c(c1Br)C(=O)OC2(c1ccc(O)c(S(=O)(=O)O)c1)c1ccc(O)c(S(=O)(=O)O)c1)C(=O)NCC(=O)O)C(=O)O`: the Ki in test [1] worked out at 0.0461 µM. In other words, the double-digit nanomolar range.
On the same count and under the same terms, to `O=C(O)[C@H]1O[C@@H](Oc2cc3oc(-c4ccccc4)cc(=O)c3c(O)c2O)[C@H](O)[C@@H](O)[C@@H]1O` [BAICALIN] belongs 7.95 µM; to `CO/N=C(\C(=O)N[C@@H]1C(=O)N2C(C(=O)O)=C(CSc3nc(C)c(CC(=O)O)s3)CS[C@H]12)c1csc(N)n1` [CEFODIZIME], 10 µM.
With `CC1(C)[C@@H](O[C@H]2O[C@H](C(=O)O)[C@@H](O)[C@H](O)[C@H]2O[C@@H]2O[C@H](C(=O)O)[C@@H](O)[C@H](O)[C@H]2O)CC[C@]2(C)[C@H]3C(=O)C=C4[C@@H]5C[C@@](C)(C(=O)O)CC[C@]5(C)CC[C@@]4(C)[C@]3(C)CC[C@@H]12` [GLYCYRRHIZIN], the inhibition constant Ki in test [2] was 1.91 µM; in test [1], 0.84 µM.
As for `CC1(C)C(/C=C/C=C/C=C/C=C2\N(CCCCS(=O)(=O)O)c3ccc4ccccc4c3C2(C)C)=[N+](CCCCS(=O)(=O)[O-])c2ccc3ccccc3c21` [INDOCYANINE GREEN], the Ki in test [1] stood at 1 µM.
For `Nc1nc2c(c(=O)[nH]1)N(C=O)C(CNc1ccc(C(=O)N[C@@H](CCC(=O)O)C(=O)O)cc1)CN2` (stereo partly drawn) [LEUCOVORIN], the affinity in test [1] corresponds to a Ki of 132 µM.
Still for that read-out and setting: to `O=C(Nc1cccc2c(=O)cc(-c3nnn[nH]3)oc12)c1ccc(OCCCCc2ccccc2)cc1` [PRANLUKAST] belongs 41.1 µM.
`CCCN(CCC)S(=O)(=O)c1ccc(C(=O)O)cc1` [PROBENECID]: the results for the Ki in test [3] and in test [4] were 44.6 µM and 42.2 µM, respectively.
For the compound `O=C1OC(c2ccc(O)c(S(=O)(=O)O)c2)(c2ccc(O)c(S(=O)(=O)O)c2)c2c(Br)c(Br)c(Br)c(Br)c21` [SULFOBROMOPHTHALEIN SODIUM], the Ki in test [2] worked out at 2.87 µM; in test [1], 2.18 µM.
In the case of CREMOPHOR EL, in test [1], the affinity corresponds to a Ki of 281 µM.
